According to patent US20230042198A1, “Methods and Compositions for Modulationg Heterochromatin Dysfunction, Genomic Instability, and Associate Conditions” (La Jolla Institute for Immunology, priority 2019, published 2023):

Test system: IMR90 fibroblasts, CD4+ and CD8+ T cells, CD34+ cells
Assay: Senescence and heterochromatic hypomethylation with cell division/aging, rescue with Vitamin C
Type: cell-based, human
Conditions: activator of TET proteins
From the text: Example 9: The inventors investigated heterochromatin dysfunction as a function of both cellular age and number of cell divisions, using multiple cellular systems: IMR90 fibroblasts, freshly isolated CD4+ and CD8+ T cells from young and old human donors, and commercially available CD34^+ cells (enriched for hematopoietic precursor cells) from human newborns (cord blood) and older adults.
Tet1/2/3 triple-foxed (Tet1/2/3 Tfl) RosaYFP^LSL or RosaYFP^LSL mice were used, left […] with tamoxifen; (ii) DNMT3a (or multiple Dnmt) foxed mice, also bearing the RosaYFP^LSL reporter and left […] with tamoxifen. Mouse fibroblasts have a longer passage time to senescence, so IMR90 human fibroblasts in which partial TET or DNMT loss-of-function was induced by genome editing were also used.

O=C1O[C@H]([C@@H](O)CO)C(O)=C1O [Vitamin C]
hypomethylation observed with cell division and/or aging: can be rescued
time to senescence: can be delayed
